One series concerns the target T1, Bcl-XL (Homo sapiens, UniProt Q07817, S2L).
T1 construct: with the C-terminus truncated; His6; made in house; host or cells: Escherichia coli BL21 (pLys)
Kind of series: Fluorescence anisotropy binding and competition binding assay. As to conditions: competition binding assay: BakF-BH3 2E-8 M, competitor peptide 2E-7 M, Bcl-XL 2E-8 M to 1E-6 M; 45 min, 30°C; read-out: Weighted mean Kd. The procedure: Fluorescence Anisotropy was monitored with a Polarion Instrument (Tecan, Austria): excitation wavelength = 485 nm, emission wavelength = 535 nm. […] Anisotropy values were studied at a fixed concentration of fluoresceinated Bak BH3 molecule (2E-8 M), a fixed concentration of peptide inhibitors (2E-7 M) and increasing concentrations of Bel-XL (from 2E-8 M to 1E-6 M). Experiments were performed in 96-wells black non-binding plates (Corning), the experimental volume was always 200 µl / well. Reagents were mixed at room temperature and maintained at a constant temperature (30°C) during the measurements. Anisotropy measurements were performed at different times of incubation to assess the stability of the reactions. […]
For simple binding experiments we evaluated the Kd using a nonlinear regression analysis [NLIN SAS] to fit the Lundblad equation [38]. […]
We calculated the expected Anisotropy value solving a third degree equation obtained extending the simple binding equation to a competitive binding inhibition assay. […]
Point estimates of each equilibrium constant were evaluated using meta-analytical tools weighting each experimental result for its estimated variance. […]
Fluorescence Anisotropy (FA) is a quantitative technique to analyze the interaction of a smaller fluorescent molecule with a larger non fluorescent molecule. […]
(In general: Fluorescence polarisation rises when a labelled molecule tumbles more slowly, as on binding a larger partner.)

Series [1] in a line: Circular dichroism, relative content of secondary structure elements. As to conditions: CDSSTR deconvolution. It counts as physicochemical. On the set-up: key to α-Helix / β-Strands / β-Turns / Random: relative content as fraction, from CDSSTR deconvolution. Here is the method: Circular dichroism (CD) spectra in the far-UV region (190-260 nm) were collected on a Jasco J-715 spectropolarimeter using a 0.1 cm path-length cuvette. Temperature was kept at 25°C by a Peltier device. Peptide concentration was determined from the absorption of the aromatic residues at 280 nm.
Peptides solutions: Bim-BH3Y and Bim-BH3YA2Aib were suspended in water and potassium hydroxide was added up to complete solubilization. 072RB was dissolved in water. Concentration of stock solutions was about 0.1 mg/ml. For circular dichroism measurements, stock solutions were diluted in 10 mM potassium phosphate buffer, pH 7.
The relative content of secondary structure elements was calculated with the deconvolution program CDSSTR [31] (Table 2). […] 072RB has the highest helical content in the set examined here (0.30 α-helix percent).
For orientation: CD spectra are sensitive to the conformation of chiral molecules.

Series [2] can be described thus: Peptides stability in medium with 10% FBS or in 100% FBS (HPLC-MS). The class given is in vitro ADME. As to conditions: medium (RPMI 1640) with 10% FBS, 37°C, 32 µM; calculated by linear regression. The procedure: Compounds were added to the medium solution of serum 10% or 100% FBS at the final concentration of 32 µM. Several extraction mixtures were attempted: MeOH; MeOH with 0,1% trifluoroacetic acid (TFA); (H2O: MeOH) 1:1, 1:4, 4;1. A perchloric acid (PCA) protein precipitation protocol was also tried. […] In both cases ice-cold methanol was added to the peptide solution. The mixture was centrifuged and the resulting supernatant was then added with ice-cold methanol (alone or containing 0,1% TFA) at a 1:1 final ratio and this procedure was repeated twice. Before extraction peptides were incubated in 10% FBS or 100% FBS at 37°C and, at different incubation times (0', 6, 24 and 48 hours), a sample of 50 µl was collected to be analyzed by HPLC-MS.

Setting [3] is: relative content, 10 mM potassium phosphate buffer, pH 7, 25°C.

The term pKd denotes the Kd on a negative log10 scale, so that one unit is a factor of ten.

pKd: −log10 of the molar value. Where a SMILES comes first, the peptide text is derived from it. [ ]: non-standard residue; d: D form. Aib = CC(C)(N)C(=O)O

T1 sequence (Q07817 1-212 S2L): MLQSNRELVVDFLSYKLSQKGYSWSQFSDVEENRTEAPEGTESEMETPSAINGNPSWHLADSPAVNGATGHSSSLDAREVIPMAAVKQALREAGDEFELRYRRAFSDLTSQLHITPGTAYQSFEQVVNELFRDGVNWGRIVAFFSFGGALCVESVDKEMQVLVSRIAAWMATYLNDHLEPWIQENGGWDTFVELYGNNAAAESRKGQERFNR

Turning to `CC[C@H](C)[C@H](NC(=O)[C@H](CCCNC(=N)N)NC(=O)[C@H](CCCNC(=N)N)NC(=O)[C@H](CC(C)C)NC(=O)[C@H](CCC(=O)O)NC(=O)[C@H](CCC(N)=O)NC(=O)C(C)(C)NC(=O)[C@@H](NC(=O)[C@H](Cc1ccc(O)cc1)NC(=O)[C@@H](NC(=O)[C@H](CCC(=O)O)NC(=O)[C@@H]1CCCN1C(=O)[C@H](CCCNC(=N)N)NC(=O)[C@H](CCSC)NC(=O)[C@@H](N)CC(=O)O)[C@@H](C)CC)[C@@H](C)CC)C(=O)NCC(=O)N[C@@H](CC(=O)O)C(=O)N[C@@H](C)C(=O)N[C@@H](Cc1ccccc1)C(=O)N[C@@H](CC(N)=O)C(=O)NC(C)(C)C(=O)N[C@@H](Cc1ccc(O)cc1)C(N)=O` [Bim-BH3YA2Aib] (H-DMRPEIYI[Aib]QELRRIGDAFN[Aib]Y-NH2; N-terminus and C-terminus assumed), the negative logarithm of the Kd (pKd) on Bcl-XL is 7.92. For the same compound, the “relative content of helices” value in series [1] was 0.15 α-helix percent. In series [1] (setting [3]), this compound returned a Random of 0.56, a α-Helix of 0.15, a β-Strands of 0.14 and a β-Turns of 0.15. The half-life in series [2] is on record as 99,0 h.

(Values after patent EP1985629A1, “Pro-apoptotic molecules and therapeutic uses thereof” (UNIVERSITA DEGLI STUDI DI GENOVA, priority 2007, dated 2008).)
